Measurements: PMC9598282 (Antibiotics, 2022)
Like-named read-outs stand apart in the source and are kept apart here.

Key:
A. baumannii ATCC 17978 = test: microbe, parasite or virus in culture; assay type: cell-based, Acinetobacter baumannii; settings: for MIC: Acinetobacter baumannii, ATCC17978, 18 h, read-out: MIC alone
Experimental: (§1) The adjuvant properties of the guanidinylated polymyxins were evaluated using the checkerboard assay as previously described. The bacterial solution was prepared as described in the antimicrobial susceptibility assay. The antibiotic of interest and the adjuvant were serially diluted two-fold along the x- and y-axis on a 96-well plate, respectively, resulting in varying concentrations of both agents in each well. Equal volumes of bacterial solution were added to the designated wells. The well consisting of bacterial solution served as the positive control, while the wells containing only media served as the negative control. The plate was then incubated at 37 °C for 18 h. After incubation, an Emax Plus microplate reader (Molecular Devices, Union City, CA, USA) was used to measure the OD at a wavelength of 590 nm to confirm the turbidity. The fractional inhibitory concentration (FIC) index was then determined to establish the relationship between the antibiotic and adjuvant. The FIC index corresponds to the sum of the FICs of the antibiotic and adjuvant. The FIC of each agent is calculated by dividing its MIC when it is used in combination by its MIC when used alone. FIC indices ≤0.5, 0.5 < x ≤ 4 and >4 indicate synergy, additivity and antagonism, respectively.

P. aeruginosa PAO1 = test: microbe, parasite or virus in culture; assay type: cell-based, Pseudomonas aeruginosa; settings: for MIC: Pseudomonas aeruginosa, PAO1, 18 h, read-out: MIC alone
Experimental: as §1

E. coli ATCC 25922 = test: microbe, parasite or virus in culture; assay type: cell-based, Escherichia coli; design: key to FIC index antibiotic + GCol / FIC index antibiotic + GPMB: sum of FICs; ≤0.5 synergy, 0.5–4 additivity, >4 antagonism; settings: for MIC: Escherichia coli, ATCC25922, 18 h, read-out: MIC alone
Experimental: as §1

P. aeruginosa PA 107092 = test: Time-kill assay; assay type: cell-based, Pseudomonas aeruginosa; settings: ceftazidime 8 μg/mL + GCol 2 μM or avibactam 8 μM
Experimental: To study the time-dependent killing effects of the drug combinations, the time-kill kinetics were assessed. The time-kill assay was performed following the 8 μM (2 μg/mL) concentration of avibactam used in the checkerboard assay. […] This concentration also corresponds to the susceptibility breakpoint of both β-lactams.
For the preparation of the bacterial solution, an overnight grown culture was diluted in 0.85% saline solution and adjusted to 0.5 McFarland turbidity. […] The culture tubes were incubated at 37 °C, shaking at 250 rpm. At the appointed time intervals, a 100-μL aliquot was taken from each tube, serially diluted in phosphate-buffered saline (PBS) and plated on LB agar plates. The plates were incubated at 37 °C, and bacterial colonies were counted after 18 h. The bactericidal or bacteriostatic activity is determined based on the decrease in CFU over the time period. Bactericidal activity corresponds to ≥3 log10 reduction in CFU/mL, while bacteriostatic activity corresponds to <3 log10 reduction in CFU/mL.

[1] = agent alone, one value per checkerboard plate

Row | SMILES | Absolute MIC of antibiotic at 2 μg/mL GCol (A. baumannii ATCC 17978) | Absolute MIC of antibiotic at 2 μg/mL GPMB (A. baumannii ATCC 17978) | FIC index antibiotic + GPMB (A. baumannii ATCC 17978) | Fold-potentiation of antibiotic (A. baumannii ATCC 17978; at 2 μg/mL GCol) | Fold-potentiation of antibiotic (A. baumannii ATCC 17978; at 2 μg/mL GPMB) | Absolute MIC of antibiotic at 4 μg/mL GCol (P. aeruginosa PAO1) | Absolute MIC of antibiotic at 4 μg/mL GPMB (P. aeruginosa PAO1) | Fold-potentiation of antibiotic (P. aeruginosa PAO1; at 4 μg/mL GCol) | Fold-potentiation of antibiotic (P. aeruginosa PAO1; at 4 μg/mL GPMB) | Absolute MIC of antibiotic at 2 μg/mL GCol (E. coli ATCC 25922) | Absolute MIC of antibiotic at 2 μg/mL GPMB (E. coli ATCC 25922) | FIC index antibiotic + GCol (E. coli ATCC 25922) | FIC index antibiotic + GPMB (E. coli ATCC 25922) | Fold-potentiation of antibiotic (E. coli ATCC 25922; at 2 μg/mL GCol) | Fold-potentiation of antibiotic (E. coli ATCC 25922; at 2 μg/mL GPMB) | other results
1 | NC[C@H]1O[C@H](O[C@H]2[C@H](O)[C@@H](O[C@H]3O[C@H](CO)[C@@H](O)[C@H](N)[C@H]3O)[C@H](N)C[C@@H]2N)[C@H](N)C[C@@H]1O [Tobramycin] | 1 µg/mL | 2 µg/mL | 1 | 1 | 1 | 2 µg/mL | 2 µg/mL | 1 | 1 | 1 µg/mL | 1 µg/mL | 0.516 | 1.031 | 2 | 1 | MIC (A. baumannii ATCC 17978; [1]): 1 µg/mL; FIC index antibiotic + GPMB (P. aeruginosa PAO1): 1.016; MIC (P. aeruginosa PAO1; [1]): 2 µg/mL; MIC (E. coli ATCC 25922; [1]): 2 µg/mL
2 | CN[C@H](CC(C)C)C(=O)N[C@H]1C(=O)N[C@@H](CC(N)=O)C(=O)N[C@H]2C(=O)N[C@H]3C(=O)N[C@H](C(=O)N[C@H](C(=O)O)c4cc(O)cc(O)c4-c4cc3ccc4O)[C@H](O)c3ccc(c(Cl)c3)Oc3cc2cc(c3O[C@@H]2O[C@H](CO)[C@@H](O)[C@H](O)[C@H]2O[C@H]2C[C@](C)(N)[C@H](O)[C@H](C)O2)Oc2ccc(cc2Cl)[C@H]1O [Vancomycin] | 64 µg/mL | 16 µg/mL | 0.188 | 2 | 8 | 8 µg/mL | 2 µg/mL | 32 | 128 | 16 µg/mL | 8 µg/mL | 0.25 | 0.313 | 8 | 16 | MIC (A. baumannii ATCC 17978): 128 µg/mL; MIC (P. aeruginosa PAO1): 256 µg/mL; MIC (E. coli ATCC 25922): 128 µg/mL
3 | NC(=O)[C@@H]1CC[C@@H]2CN1C(=O)N2OS(=O)(=O)O [avibactam] | – | – | – | – | – | – | – | – | – | – | – | – | – | – | – | time-kill effect of dual therapy with ceftazidime (P. aeruginosa PA 107092): bacteriostatic effect
